Assay results taken from US8188078B2 (Sanofi-Aventis, priority 2007, dated 2012).

Experiments:
c-MET = biological target: T1, c-MET (Homo sapiens, UniProt P08581); experiment: Test A: HTRF Met test in 96-well format; assay type: biochemical
T1 construct: The recombinant DNA His-Tev-MET (956-1390) in pFastBac(Invitrogen); His (N, cleaved yes); Tev (TEV protease site) (N, cleaved yes); made in house; host or cells: SF21 insect cells (baculovirus, pFastBac)
How it was run: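 The kinase was the Sf21-expressed MET cytoplasmic domain (956–1390), His tag removed, used at 5 nM with compound (0.17 nM–10 µM, 3% DMSO) in 10 mM MOPS pH 7.4. Poly-GAT 1 µg/ml, 10 µM ATP and 5 mM MgCl2 reacted 10 min at RT. After an EDTA stop, phosphotyrosine was detected by HTRF (665/620 ratio).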

T1 sequence (P08581 956-1390): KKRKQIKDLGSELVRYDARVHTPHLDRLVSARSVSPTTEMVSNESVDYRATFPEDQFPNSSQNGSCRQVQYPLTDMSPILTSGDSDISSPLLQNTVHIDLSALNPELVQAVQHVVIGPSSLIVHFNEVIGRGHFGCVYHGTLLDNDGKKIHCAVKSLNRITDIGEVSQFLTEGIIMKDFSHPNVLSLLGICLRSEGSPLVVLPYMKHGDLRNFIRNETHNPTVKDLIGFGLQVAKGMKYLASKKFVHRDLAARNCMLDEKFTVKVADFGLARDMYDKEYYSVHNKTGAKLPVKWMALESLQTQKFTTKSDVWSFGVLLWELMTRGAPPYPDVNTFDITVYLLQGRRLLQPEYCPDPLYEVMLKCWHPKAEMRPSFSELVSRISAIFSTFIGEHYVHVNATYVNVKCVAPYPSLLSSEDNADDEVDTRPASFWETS

IC50 (c-MET) [nM] | melting point [°C] | Structure (SMILES)
< 100 | 102 to 105 | CC(Oc1ccc2nc(NC(=O)NCCC3CCCN3C)sc2c1)c1c(F)ccc(Cl)c1Cl (stereo not shown) [Example 110, 1-{6-[1-(2,3-dichloro-6-fluorophenyl)ethoxy]-1,3-benzothiazol-2-yl}-3-[2-(1-methylpyrrolidin-2-yl)ethyl]urea]
< 100 | 189 | CC(Oc1ccc2nc(NC(=O)NCCN3CCCC3)sc2c1)c1c(Cl)ccc(Cl)c1Cl (stereo not shown) [Example 125, 1-[2-(pyrrolidin-1-yl)ethyl]-3-{6-[1-(2,3,6-trichlorophenyl)ethoxy]-1,3-benzothiazol-2-yl}urea]
< 100 | 226 to 228 | CC(Oc1cc2sc(NC(=O)NCCN3CCOCC3)nc2cc1F)c1c(Cl)ccc(F)c1Cl (stereo not shown) [Example 31, 1-{6-[1-(2,6-dichloro-3-fluorophenyl)ethoxy]-5-fluoro-1,3-benzothiazol-2-yl}-3-(2-morpholin-4-ylethyl)urea]
< 100 | 150 to 152 | CCN1CCN(CCNC(=O)Nc2nc3cc(F)c(OC(C)c4c(Cl)ccc(F)c4Cl)cc3s2)CC1 (stereo not shown) [Example 100, 1-{6-[1-(2,6-dichloro-3-fluorophenyl)ethoxy]-5-fluoro-1,3-benzothiazol-2-yl}-3-[2-(4-ethylpiperazin-1-yl)ethyl]urea]
< 100 | 215 to 220 | CC(Oc1ccc2nc(NC(=O)NCCN3CCOCC3)[nH]c2c1)c1c(Cl)cccc1Cl (stereo not shown) [Example 2, 1-{6-[1-(2,6-dichlorophenyl)ethoxy]-1H-benzimidazol-2-yl}-3-(2-morpholin-4-ylethyl)urea]
< 100 | 125 to 139 | CC(Oc1ccc2nc(NC(=O)NCCN3CCN(Cc4ccccc4)CC3)sc2c1)c1c(Cl)ccc(F)c1Cl (stereo not shown) [Example 35, 1-[2-(4-benzylpiperazin-1-yl)ethyl]-3-{6-[1-(2,6-dichloro-3-fluorophenyl)ethoxy]-1,3-benzothiazol-2-yl}urea]
100 to 10000 | 138 to 169 | CC(Oc1ccc2nc(NC(=O)NCCN3CCNCC3)sc2c1)c1c(Cl)ccc(F)c1Cl.O=C(O)C(F)(F)F (stereo not shown) [Example 37, 1-{6-[1-(2,6-Dichloro-3-fluorophenyl)ethoxy]-1,3-benzothiazol-2-yl}-3-(2-piperazin-1-ylethyl)urea trifluoroacetate]
< 100 | 183 | CNCCCNC(=O)Nc1nc2cc(F)c(OC(C)c3c(Cl)ccc(F)c3Cl)cc2s1 (stereo not shown) [Example 127, 1-{6-[1-(2,6-dichloro-3-fluorophenyl)ethoxy]-5-fluoro-1,3-benzothiazol-2-yl}-3-[3-(methylamino)propyl]urea]
< 100 | 165 to 170 | Cc1ccc(F)c(C(C)Oc2ccc3nc(NC(=O)NCCN4CCOCC4)sc3c2)c1Cl (stereo not shown) [Example 28, 1-{6-[1-(2-chloro-6-fluoro-3-methylphenyl)ethoxy]-1,3-benzothiazol-2-yl}-3-(2-morpholin-4-ylethyl)urea]
< 100 | 189 | CC(Oc1ccc2nc(NC(=O)NCCN3CCOCC3)sc2c1)c1c(Cl)ccc(Cl)c1Cl (stereo not shown) [Example 124, 1-[2-(morpholin-4-yl)ethyl]-3-{6-[1-(2,3,6-trichlorophenyl)ethoxy]-1,3-benzothiazol-2-yl}urea]
< 100 | 195 | CC(Oc1cc2sc(NC(=O)NCCCN3CCCC3=O)nc2cc1F)c1c(F)ccc(Cl)c1Cl (stereo not shown) [Example 114, 1-{6-[1-(2,3-dichloro-6-fluorophenyl)ethoxy]-5-fluoro-1,3-benzothiazol-2-yl}-3-[3-(2-oxopyrrolidin-1-yl)propyl]urea]
< 100 | 150 to 160 | O=C(NCCN1CCOCC1)Nc1nc2ccc(OC(c3c(Cl)cccc3Cl)C(F)(F)F)cc2s1 (stereo not shown) [Example 64, 1-{6-[1-(2,6-dichlorophenyl)-2,2,2-trifluoroethoxy]-1,3-benzothiazol-2-yl}-3-(2-morpholin-4-ylethyl)urea]
< 100 | 141 to 145 | CC(Oc1ccc2nc(NC(=O)CCCN3CCOCC3)sc2c1)c1c(Cl)ccc(F)c1Cl (stereo not shown) [Example 65, N-{6-[1-(2,6-dichloro-3-fluorophenyl)ethoxy]-1,3-benzothiazol-2-yl}-4-(morpholin-4-yl)butanamide]
< 100 | 268 to 271 | O=C(NCCN1CCOCC1)Nc1nc2ccc(OCc3c(Cl)cccc3Cl)cc2s1 [Example 10, 1-{6-[(2,6-dichlorobenzyl)oxy]-1,3-benzothiazol-2-yl}-3-(2-morpholin-4-ylethyl)urea]
< 100 | 133 to 139 | CC(Oc1ccc2nc(NC(=O)NCCN3CCC(Cc4ccccc4)CC3)sc2c1)c1c(Cl)ccc(F)c1Cl (stereo not shown) [Example 34, 1-[2-(4-benzylpiperidin-1-yl)ethyl]-3-{6-[1-(2,6-dichloro-3-fluorophenyl)ethoxy]-1,3-benzothiazol-2-yl}urea]
< 100 | 92 to 95 | Cc1ccc(F)c(C(C)Oc2ccc3nc(NC(=O)NCCN4CCOCC4)sc3c2)c1F (stereo not shown) [Example 123, 1-{6-[1-(2,6-difluoro-3-methylphenyl)ethoxy]-1,3-benzothiazol-2-yl}-3-[2-(morpholin-4-yl)ethyl]urea]
< 100 | 110 | CC(Oc1ccc2nc(NC(=O)NCCN3CCOCC3)sc2c1)c1c(Cl)ccc(F)c1Cl (stereo not shown) [Example 24, 1-{6-[1-(2,6-dichloro-3-fluorophenyl)ethoxy]-1,3-benzothiazol-2-yl}-3-(2-morpholin-4-ylethyl)urea]
